Data: ChEMBL document CHEMBL4130502, “Discovery of thienopyrrolotriazine derivatives to protect mitochondrial function against Aβ-induced neurotoxicity” (Eur J Med Chem, 2017)

Experiments:
[1] = target: Translocator protein (Mus musculus) (UniProt P50637); assay: Inhibition of TSPO in mouse HT22 cells assessed as recovery of ATP production at 5 uM preincubated for 10 mins followed by amyloid beta (1 to 42) stimulation and measured after 7 hrs by luciferase based assay relative to control; assay type: cell-based; set-up: scale not given: the % may be the effect or the level left
Translocator protein (Mus musculus), sequence (P50637 whole entry, looked up): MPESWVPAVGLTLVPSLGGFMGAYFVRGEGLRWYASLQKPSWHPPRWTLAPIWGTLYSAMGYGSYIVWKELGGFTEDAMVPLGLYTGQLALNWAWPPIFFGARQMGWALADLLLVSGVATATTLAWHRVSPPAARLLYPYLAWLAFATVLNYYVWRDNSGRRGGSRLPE

[2] = Cytotoxicity against mouse HT22 cells as cell viability at 5 uM after 24 hrs by MTT assay relative to control; assay type: cell-based, HT-22; conditions: read-out: Activity
[3] = target: Translocator protein (Mus musculus) (UniProt P50637); assay: Inhibition of TSPO in mouse HT22 cells assessed as reduction in amyloid beta (1 to 42) (unknown origin) induced mitochondrial permeability transition pore formation by measuring increase in green to red fluorescence ratio at 5 uM pretreated for 10 mins followed by amyloid beta (1 to 42) stimulation and measured at 1 hr interval for 3 hrs by JC-1 dye based fluorescence assay relative to control; assay type: cell-based; set-up: scale not given: the % may be the effect or the level left

| Compound | Activity [1] [%] | viability at 24 h, 5 µM [2] [%] | Activity [3] [%] |
| --- | --- | --- | --- |
| CCc1nnc(SCC(=O)Nc2ccccc2)c2cc3sc(Cl)cc3n12 | 4 | 95 | 66 |
| CCc1nnc(SCC(=O)Nc2ccc(OC)c(OC)c2)c2cc3sccc3n12 | 14 | 82 | 56 |
| Cc1cc2c(cc3c(SCC(=O)N(C)c4ccccc4)nnc(C)n32)s1 | 33 | 87 | 56 |
| COc1ccc(NC(=O)Cn2nc(C)n3c(cc4sc(C)cc43)c2=O)cc1OC | -8 | 97 | 52 |
| Cc1nnc(SCC(=O)Nc2ccccc2)c2cc3sccc3n12 | 5 | 96 | 59 |
| CN1C(=O)CN=C(c2ccc(Cl)cc2)c2cc(Cl)ccc21 [RO-54864] | 9 | 100 | 12 |
| CCN(Cc1ccccc1)C(=O)CSc1nnc(C)n2c1cc1sccc12 | 8 | 99 | 63 |
| COC(=O)C1CCc2ccccc2N1C(=O)c1ccc(OC)cc1 (centres undefined) | – | – | 38 |
| CCc1nn(CC(=O)N(C)c2ccccc2)c(=O)c2cc3sccc3n12 | -9 | 93 | 50 |
| CN1C(=O)CN=C(c2ccccc2)c2cc(Br)ccc21 | – | – | 0 |
| CCc1nnc(SCC(=O)Nc2ccc(OC)c(OC)c2)c2cc3sc(Cl)cc3n12 | 7 | 94 | 69 |
| COC(=O)CN1C(=O)C2CCCCC2Sc2ncccc21 (centres undefined) | – | – | 0 |
| CCc1nnc(SCC(=O)N(CC)Cc2ccccc2)c2cc3sccc3n12 | 1 | 99 | 56 |
| C=CCN1C(=O)CN=C(c2ccccc2C)c2cc(CC)sc21 | – | – | 0 |
| C=CCN1C(=O)CN=C(c2cccs2)c2c1sc1c2CCC1 | – | – | 38 |
| COc1cc(-c2nnc(SCc3c(F)cccc3Cl)o2)cc(OC)c1OC | -3 | 94 | 65 |
| CCc1nnc(SCC(=O)NCc2ccccc2)c2cc3sc(C)cc3n12 | -3 | 29 | 55 |
| COc1ccccc1C1NC(=S)NC(C)=C1C(=O)OCc1ccccc1 (centres undefined) | 0 | 88 | 56 |
| C=CCN1C(=O)CN=C(c2ccc(C(C)(C)C)cc2)c2c1sc1c2CCCC1 | – | – | 14 |
| CCc1nn(CC(=O)N2CCN(c3ccccc3)CC2)c(=O)c2cc3sccc3n12 | 9 | 91 | 56 |
| CCOC(=O)C(C)N1C(=O)CN=C(c2ccc(OC)cc2)c2c1sc1c2CCCC1 (centres undefined) | – | – | 24 |
| Cc1cc2c(cc3c(=O)n(CC(=O)N(C)C)nc(C)n32)s1 | 0 | 96 | 17 |
| Cc1ccc(S(=O)(=O)NCc2cccnc2)c(C)c1 | – | – | 0 |
| Cc1noc(C)c1S(=O)(=O)NC(c1ccccc1)c1ccccc1 | – | – | 0 |
| CCc1nn(CC(=O)Nc2ccc(OC)c(OC)c2)c(=O)c2cc3sccc3n12 | -17 | 40 | 56 |
| Cc1nnc(SCC(=O)NCc2ccccc2)c2cc3sccc3n12 | 6 | 73 | 48 |
| CNC(=O)CN(c1ccc(Br)cc1)S(=O)(=O)c1ccc(C)cc1 | – | – | 35 |
| CCN(Cc1ccccc1)C(=O)Cn1nc(C)n2c(cc3sc(C)cc32)c1=O | 9 | 90 | 45 |

| Compound | Activity [1] [%] | viability at 24 h, 5 µM [2] [%] | Activity [3] [%] |
| --- | --- | --- | --- |
| Cc1cc2c(cc3c(SCC(=O)N4CCN(c5ccccc5)CC4)nnc(C)n32)s1 | -9 | 99 | 69 |
| Cc1cc2c(cc3c(SCC(=O)Nc4ccccc4)nnc(C)n32)s1 | 19 | 88 | 58 |
| Cn1c(=O)oc2cc(NS(=O)(=O)Cc3ccco3)ccc21 | 14 | 103 | 41 |
| Cc1nnc(SCC(=O)N2CCN(c3ccccc3)CC2)c2cc3sccc3n12 | 0 | 98 | 59 |
| COc1ccc(NC(=O)CSc2nnc(C)n3c2cc2sccc23)cc1OC | 0 | 99 | 55 |
| CCc1nn(CC(=O)N(C)C)c(=O)c2cc3sccc3n12 | -3 | 98 | 12 |
| CCc1nnc(SCC(=O)N(C)c2ccccc2)c2cc3sc(Cl)cc3n12 | 22 | 78 | 61 |
| Cc1ccc2c(c1)C(c1ccccc1)=NCC(=O)N2C | – | – | 1 |
| Cn1c(SCC(=O)NCc2ccccc2)nnc1-c1cc2ccccc2o1 | – | – | 19 |
| CCc1nnc(SCC(=O)N2CCN(c3ccccc3)CC2)c2cc3sc(Cl)cc3n12 | -2 | 99 | 50 |
| CCc1nnc(SCC(=O)Nc2ccccc2)c2cc3sccc3n12 | -3 | 91 | 48 |
| CCc1nnc(SCC(=O)N(CC)Cc2ccccc2)c2cc3sc(C)cc3n12 | 25 | 82 | 67 |
| O=C(COc1ccc(Cl)cc1)ON=C(c1ccccc1)c1ccccc1 | – | – | 0 |
| CCc1nnc(SCC(=O)NCc2ccccc2)c2cc3sccc3n12 | -15 | 54 | 50 |
| COC(=O)CN(c1ccc(C(C)C)cc1)S(=O)(=O)c1ccc(C)cc1 | -1 | 92 | 67 |
| CCOC(=O)C1=C(C)N/C(=C/c2ccccc2OCc2ccccc2)C1=O | – | – | 22 |
| Cc1cc2c(cc3c(=O)n(CC(=O)N(C)c4ccccc4)nc(C)n32)s1 | 17 | 100 | 41 |
| O=S(=O)(c1ccccc1Cl)N1CCCC1c1cccs1 (centres undefined) | -61 | 114 | 67 |
| CCN(C(=O)CCl)c1ncc(-c2ccc(OC)cc2)s1 | – | – | 0 |
| Cc1cc2c(cc3c(SCC(=O)NCc4ccccc4)nnc(C)n32)s1 | -50 | 61 | 35 |
| CCc1nnc(SCC(=O)N2CCN(c3ccccc3)CC2)c2cc3sccc3n12 | -4 | 68 | 53 |
| C=CCN1C(=O)CN=C(c2ccccc2)c2c1sc(C)c2C | -2 | 93 | 75 |
| CCc1nn(CC(=O)N(CC)Cc2ccccc2)c(=O)c2cc3sccc3n12 | -11 | 100 | 57 |
| O=C(Cc1coc2ccc3ccccc3c12)NCc1ccco1 | -3 | 96 | 85 |
| CCOC(=O)C(C)N1C(=O)CN=C(c2cccc(C)c2)c2c1sc1c2CCCC1 (centres undefined) | – | – | 0 |
| Cc1ccc(S(=O)(=O)Nc2ccc3c(c2)sc(=O)n3C)c(C)c1 | – | – | 4 |
| CCCC(=O)n1nc(-c2ccco2)nc1S(=O)(=O)Cc1ccccc1 | – | – | 0 |
